As a reminder, the melting point is the temperature, or range, at which the solid turns liquid.

Turning to `CON(C)C(=O)C(O)CNC(=O)c1cc2cc(Cl)ccc2[nH]1` (racemic) [Example 30, 5-Chloro-1H-indole-2-carboxylic acid [(2RS)-hydroxy-2-(methoxy-methyl-carbamoyl)-ethyl]-amide], the melting point lay in the range of 192 to 192.5 °C.

These data come from US6649634B2, “Substituted N-( indole-2-carbonyl-) amides and derivatives as glycogen phosphorylase inhibitors” (Pfizer, Inc., priority 1995, dated 2003).
